According to patent publication US6992169B2, “Carrier based drug delivery system” (Cyclacel Limited, priority 1998, dated 2006):
Where no end group is shown, it is not given here.

Experiments:
[1] = molecular target: purified recombinant human topoisomerase II (Homo sapiens, UniProt P11388); test: Topoisomerase II inhibition assay (cleavage and relaxation); assay type: biochemical; settings: test compound at 1 mM, 100 μM, or 10 μM; plasmid DNA, agarose gel
Protocol: Topoisomerase II assay—Plasmid DNA (0.3 μg) was incubated at 37° C. with 4 units of purified recombinant human topoisomerase II in cleavage buffer (30 mM Tris.HCl, pH 7.6, 60 mM NaCl, 3 mM ATP, 15 mM mercaptoethanol, 8 mM MgCl2) with or without the addition of test compound (at 1 mM, 100 μM, or 10 μM final concentration). Reactions were stopped by the immediate addition of SDS (1% w/v final). Samples were treated with proteinase K (30 min at 37° C.) and extracted twice with an equal volume of […] CHCl3/i-amyl alcohol. […] Topoisomerase II inhibition was judged by the production of linear plasmid DNA, representing trapped cleavage intermediate, and by the ratio of substrate (spercoiled DNA) to product (relaxed DNA). A relaxation assay was performed identically, except that the reaction buffer was optimised for the detection of catalysis rather than cleavage, i.e. only 2 units of enzyme were used per sample. The reaction buffer was 50 mM Tris.HCl, pH 8, 120 mM KCl, 0.5 mM ATP, 0.5 mM dithiothreitol, 10 mM MgCl2. Topoisomerase II inhibition was judged by the ratio of substrate (supercoiled DNA) to product (relaxed DNA).

[2] = system: A549 lung carcinoma; test: Cytotoxic activity, MTT-assay; assay type: cell-based; settings: Homo sapiens
Protocol: (§1) Assay procedure—Cells were seeded into 96-well plates at 2,500 cells per well in DMED, containing 10% FCS and antibiotics. After overnight incubation, test compounds were prepared as dilution series in cell medium (addition of dimethylsulfoxide in the case of free paclitaxel to effect partial dissolution) and were added to the cells. For the 1-h exposure samples, incubation was continued for 1 h, cell culture medium supernatants were removed and the wells were further washed with cell culture medium (5×2 min). Total viable cells were quantitated after a total of 72 h incubation using a standard MTT-assay.

[3] = system: MCF7 breast carcinoma; test: Cytotoxic activity, MTT-assay; assay type: cell-based; settings: Homo sapiens
Protocol: as §1

[4] = system: A2780Cis^R; test: Carcinoma cell line panel, SRB-assay; settings: Homo sapiens, A2780cisR, 96 h, read-out: 96-h IC50 cytotoxicity
Protocol: (§2) After incubation for 96 h, cytotoxicity was assessed using a standard SRB-assay.

[5] = system: A2780; test: Carcinoma cell line panel, SRB-assay; settings: Homo sapiens, A2780, 96 h, read-out: 96-h IC50 cytotoxicity
Protocol: as §2

[6] = system: BE; test: Carcinoma cell line panel, SRB-assay; settings: 96 h, read-out: 96-h IC50 cytotoxicity
Protocol: as §2

[7] = system: CH1Dox^R; test: Carcinoma cell line panel, SRB-assay; settings: 96 h, read-out: 96-h IC50 cytotoxicity
Protocol: as §2

[8] = system: CH1Taxol^R; test: Carcinoma cell line panel, SRB-assay; settings: 96 h, read-out: 96-h IC50 cytotoxicity
Protocol: as §2

[9] = system: CH1; test: Carcinoma cell line panel, SRB-assay; settings: Homo sapiens, CH1, 96 h, read-out: 96-h IC50 cytotoxicity
Protocol: as §2

[10] = system: COLO205; test: Carcinoma cell line panel, SRB-assay; settings: Homo sapiens, COLO 205, 96 h, read-out: 96-h IC50 cytotoxicity
Protocol: as §2

[11] = system: DLD-1; test: Carcinoma cell line panel, SRB-assay; settings: Homo sapiens, DLD-1, 96 h, read-out: 96-h IC50 cytotoxicity
Protocol: as §2

[12] = system: HCT116; test: Carcinoma cell line panel, SRB-assay; settings: Homo sapiens, HCT-116, 96 h, read-out: 96-h IC50 cytotoxicity
Protocol: as §2

[13] = system: HT29; test: Carcinoma cell line panel, SRB-assay; settings: Homo sapiens, HT-29, 96 h, read-out: 96-h IC50 cytotoxicity
Protocol: as §2

[14] = system: KM12; test: Carcinoma cell line panel, SRB-assay; settings: Homo sapiens, KM12, 96 h, read-out: 96-h IC50 cytotoxicity
Protocol: as §2

[15] = system: LIM1215; test: Carcinoma cell line panel, SRB-assay; settings: LIM1215, 96 h, read-out: 96-h IC50 cytotoxicity
Protocol: as §2

[16] = system: LS174T; test: Carcinoma cell line panel, SRB-assay; settings: Homo sapiens, 96 h, read-out: 96-h IC50 cytotoxicity
Protocol: as §2

[17] = system: SKOV-3; test: Carcinoma cell line panel, SRB-assay; settings: Homo sapiens, SK-OV-3, 96 h, read-out: 96-h IC50 cytotoxicity
Protocol: as §2

[18] = Serum stability of peptide vectors; settings: for half-life: bovine, serum
Protocol: Test compounds were dissolved in cell-conditioned tissue culture medium (10% FCS in DMEM) at concentrations varying from 1 to 40 μM. The solutions were incubated at 37° C. and samples were withdrawn at intervals. After filtration, aliquots were analysed by RP-HPLC (using a photodiode array UV detector). Intact vectors were identified by reference to chromatograms obtained with authentic peptides and by DE MALDI-TOF analysis of appropriate peak fractions. […] The latter was chosen preferentially in order to replicate the conditions used for cytotoxicity assays on cell cultures.

[19] = Serum stability of drug-ester linkages; assay type: in vitro ADME; settings: bovine, 10% FCS in DMEM, 1 to 40 μM, 37° C., appearance of free drug, read-out: Serum t1/2 of Drug-Linker Ester bond
Protocol: Hydrolysis of the ester bonds between the drug hydroxy groups and the linker carboxyl groups was assessed by appearance of free podophyllotoxin or paclitaxel.

[20] = system: HL60 cells; test: Intracellular stability; assay type: in vitro ADME; settings: 15 μM for 1 h, washed, 1 additional h neat medium
Protocol: After the incubation, cells were washed extensively with PBS until no test compound was detectable in the washes. Cells were incubated for one additional h with neat medium. Afterwards the cells were pelleted, resuspended in 50 mM Tris pH 7.5, containing a cocktail of protease inhibitors and they were solubilised by ultrasonication for 1 min. The insoluble fraction was pelleted for 15 min using an Eppendorf centrifuge and the supernatant was analysed by anal. RP-HPLC (0-60% MeCN gradient, λ=254 nm).

purified recombinant human topoisomerase II, sequence (P11388 whole entry): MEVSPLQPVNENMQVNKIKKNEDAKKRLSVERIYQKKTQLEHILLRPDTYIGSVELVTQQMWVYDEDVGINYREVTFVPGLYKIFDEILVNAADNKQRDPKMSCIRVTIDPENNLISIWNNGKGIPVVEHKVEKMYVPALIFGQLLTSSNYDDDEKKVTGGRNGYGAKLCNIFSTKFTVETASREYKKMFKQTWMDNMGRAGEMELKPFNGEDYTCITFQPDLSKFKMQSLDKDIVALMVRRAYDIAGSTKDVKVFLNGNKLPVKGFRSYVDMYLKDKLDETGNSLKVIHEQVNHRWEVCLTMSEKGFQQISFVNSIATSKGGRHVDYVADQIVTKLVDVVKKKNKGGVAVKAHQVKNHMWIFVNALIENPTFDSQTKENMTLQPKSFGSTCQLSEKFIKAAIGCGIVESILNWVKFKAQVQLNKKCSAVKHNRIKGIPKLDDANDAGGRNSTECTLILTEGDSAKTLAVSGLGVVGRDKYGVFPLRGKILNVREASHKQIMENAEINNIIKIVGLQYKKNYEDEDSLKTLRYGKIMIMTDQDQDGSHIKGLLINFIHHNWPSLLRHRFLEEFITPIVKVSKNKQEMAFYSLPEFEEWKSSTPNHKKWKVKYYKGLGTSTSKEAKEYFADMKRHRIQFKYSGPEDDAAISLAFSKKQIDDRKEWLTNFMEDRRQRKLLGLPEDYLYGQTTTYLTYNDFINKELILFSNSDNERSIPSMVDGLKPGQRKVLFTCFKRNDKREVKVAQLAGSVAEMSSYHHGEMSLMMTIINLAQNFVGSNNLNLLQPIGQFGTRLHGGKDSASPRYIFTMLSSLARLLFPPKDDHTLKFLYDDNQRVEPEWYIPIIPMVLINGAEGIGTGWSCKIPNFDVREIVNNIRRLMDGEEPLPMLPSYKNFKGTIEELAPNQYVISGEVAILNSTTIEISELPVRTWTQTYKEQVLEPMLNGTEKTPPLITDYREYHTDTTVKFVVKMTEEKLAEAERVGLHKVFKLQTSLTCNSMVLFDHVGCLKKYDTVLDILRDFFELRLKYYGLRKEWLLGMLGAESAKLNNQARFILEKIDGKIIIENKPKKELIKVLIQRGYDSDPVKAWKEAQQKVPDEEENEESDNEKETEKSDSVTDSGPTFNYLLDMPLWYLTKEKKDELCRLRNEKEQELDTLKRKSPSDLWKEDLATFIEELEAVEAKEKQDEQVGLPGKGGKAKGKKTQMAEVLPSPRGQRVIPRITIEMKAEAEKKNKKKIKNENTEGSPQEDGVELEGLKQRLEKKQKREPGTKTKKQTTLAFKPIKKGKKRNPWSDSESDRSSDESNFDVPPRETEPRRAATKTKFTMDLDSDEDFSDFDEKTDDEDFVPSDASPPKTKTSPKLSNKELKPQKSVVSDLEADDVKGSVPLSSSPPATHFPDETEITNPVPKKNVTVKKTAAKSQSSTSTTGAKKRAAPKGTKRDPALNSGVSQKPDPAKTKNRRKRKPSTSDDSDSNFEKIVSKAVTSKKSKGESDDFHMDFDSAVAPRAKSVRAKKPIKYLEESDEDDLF

For `COc1cc([C@@H]2c3cc4c(cc3[C@@H](Nc3ccc(N)cc3)[C@H]3COC(=O)[C@H]23)OCO4)cc(OC)c1O` [4′-Demethyl-4-(4″-aminoanilino)epipodophyllotoxin], the Activity observed [1] was “I”.
Compound `CC(=O)O[C@H]1C(=O)[C@@]2(C)[C@H]([C@H](OC(=O)c3ccccc3)[C@]3(O)C[C@H](OC(=O)[C@H](O)[C@@H](NC(=O)c4ccccc4)c4ccccc4)C(C)=C1C3(C)C)[C@]1(OC(C)=O)CO[C@@H]1C[C@@H]2O` [Paclitaxel] has an IC50 ([2]; 72 h, A549, Exposure time 3 d) of less than 15 nM, an IC50 ([2]; A549, Exposure time 1 h, then washed, viable cells after total 72 h) of 28 nM and an IC50 ([3]; 72 h, MCF7, Exposure time 3 d) of less than 15 nM. For the same compound, the IC50 ([3]; MCF7, Exposure time 1 h, then washed, viable cells after total 72 h) was 40 nM, the IC50 [4] was 5.1 nM and the IC50 [5] was less than 2.5 nM. For the same compound, the IC50 [6] was less than 2.5 nM, the IC50 [7] was 540 nM and the IC50 [8] was 5.8 nM. The IC50 [9] was 4.15 nM, the IC50 [10] was 2.6 nM and the IC50 [11] was 54 nM. For the same compound, the IC50 [12] was less than 2.5 nM, the IC50 [13] was less than 2.5 nM and the IC50 [14] was 2.85 nM. For the same compound, the IC50 [15] was 5.8 nM, the IC50 [16] was 8.5 nM and the IC50 [17] was 10 nM.
For “H-RRMKWKK-NH2 [H-Arg-Arg-Met-Lys-Trp-Lys-Lys-NH2]”, the half-life [18] was 3 h.
With RQIKIWFQNRRMKWK [15mer peptide] the “Serum stability of vector in words” value [18] was “survive for several h”.
Work on `CCC(C)[C@H](NC(=O)[C@H](CCCCN)NC(=O)[C@@H](NC(=O)[C@H](CCC(N)=O)NC(=O)[C@H](CCCNC(=N)N)NC(=O)[C@@H](N)CSCC(=O)O[C@H]1c2cc3c(cc2[C@@H](c2cc(OC)c(OC)c(OC)c2)[C@H]2C(=O)OC[C@@H]21)OCO3)C(C)CC)C(=O)N[C@@H](Cc1c[nH]c2ccccc12)C(=O)N[C@@H](Cc1ccccc1)C(=O)N[C@@H](CCC(N)=O)C(=O)N[C@@H](CC(N)=O)C(=O)N[C@@H](CCCNC(=N)N)C(=O)N[C@@H](CCCNC(=N)N)C(=O)N[C@@H](CCSC)C(=O)N[C@@H](CCCCN)C(=O)N[C@@H](Cc1c[nH]c2ccccc12)C(=O)N[C@@H](CCCCN)C(=O)N[C@@H](CCCCN)C(=O)O` (stereo partly shown) [B] yielded a half-life [19] of 0.667 h.
For `COc1cc([C@@H]2c3cc4c(cc3[C@@H](O[C@@H]3O[C@@H]5CO[C@@H](C)O[C@H]5[C@H](O)[C@H]3O)[C@H]3COC(=O)[C@H]23)OCO4)cc(OC)c1O` [Etoposide], the IC50 [4] was 680 nM, the IC50 [5] was 210 nM and the IC50 [6] was 1100 nM. For the same compound, the IC50 [7] was 6600 nM, the IC50 [8] was 145 nM and the IC50 [9] was 165 nM. For the same compound, the IC50 [10] was 800 nM, the IC50 [11] was 570 nM and the IC50 [12] was 1900 nM. For the same compound, the IC50 [13] was 2600 nM, the IC50 [14] was 580 nM and the IC50 [15] was 330 nM. The IC50 [16] was 460 nM and the IC50 [17] was 13000 nM.
For `CC[C@@H](C)[C@@H](NC(=O)[C@@H](CCCCN)NC(=O)[C@H](NC(=O)[C@@H](CCC(N)=O)NC(=O)[C@H](N)CCCNC(=N)N)[C@H](C)CC)C(=O)N[C@H](Cc1c[nH]c2ccccc12)C(=O)N[C@H](Cc1ccccc1)C(=O)N[C@H](CCC(N)=O)C(=O)N[C@H](CC(N)=O)C(=O)N[C@H](CCCNC(=N)N)C(=O)N[C@H](CCCNC(=N)N)C(=O)N[C@H](CCSC)C(=O)N[C@H](CCCCN)C(=O)N[C@H](Cc1c[nH]c2ccccc12)C(=O)N[C@H](CCCCN)C(=O)N[C@H](CCCCN)C(N)=O` [H-D-Arg-D-Gln-D-Ile-D-Lys-D-Ile-D-Trp-D-Phe-D-Gln-D-Asn-D-Arg-D-Arg-D-Met-D-Lys-D-Trp-D-Lys-D-Lys-NH3], the half-life [18] was greater than 24 h.
`CC[C@H](C)[C@H](NC(=O)[C@H](CCCCN)NC(=O)[C@@H](NC(=O)[C@H](CCC(N)=O)NC(=O)[C@@H](N)CCCNC(=N)N)[C@@H](C)CC)C(=O)N[C@@H](Cc1c[nH]c2ccccc12)C(=O)N[C@@H](Cc1ccccc1)C(=O)N[C@@H](CCC(N)=O)C(=O)N[C@@H](CC(N)=O)C(=O)N[C@@H](CCCNC(=N)N)C(=O)N[C@@H](CCCNC(=N)N)C(=O)N[C@@H](CCSC)C(=O)N[C@@H](CCCCN)C(=O)N[C@@H](Cc1c[nH]c2ccccc12)C(=O)N[C@@H](CCCCN)C(=O)N[C@@H](CCCCN)C(N)=O` showed a half-life [18] greater than 12 h.
In the case of `CCC(C)[C@H](NC(=O)[C@H](CCCCN)NC(=O)[C@@H](NC(=O)[C@H](CCC(N)=O)NC(=O)[C@H](CCCNC(=N)N)NC(=O)[C@@H](N)CSC1CC(=O)N(CCC(=O)O[C@H]2c3cc4c(cc3[C@@H](c3cc(OC)c(OC)c(OC)c3)[C@H]3C(=O)OC[C@@H]32)OCO4)C1=O)C(C)CC)C(=O)N[C@@H](Cc1c[nH]c2ccccc12)C(=O)N[C@@H](Cc1ccccc1)C(=O)N[C@@H](CCC(N)=O)C(=O)N[C@@H](CC(N)=O)C(=O)N[C@@H](CCCNC(=N)N)C(=O)N[C@@H](CCCNC(=N)N)C(=O)N[C@@H](CCSC)C(=O)N[C@@H](CCCCN)C(=O)N[C@@H](Cc1c[nH]c2ccccc12)C(=O)N[C@@H](CCCCN)C(=O)N[C@@H](CCCCN)C(N)=O` (stereo partly shown) [A], the “Intact test compound in supernatant of solubilised cells” value ([20]; RP-HPLC and MALDI-TOF MS) is reported as “Intact test compound was identified”, the “Test compound in DMSO extracts of pellets” value ([20]; insoluble fraction) is reported as “no test compound was detected” and the half-life [19] is reported as greater than 24 h.
In the case of “4′-Demethyl-4-[4″-aminoanilino-(succinimidopropionoyl)-(H-Cys-βAla-Arg-Arg-Met-Lys-Trp-Lys-Lys-NH2)]epipodophyllotoxin”, the Activity observed [1] is reported as “I”.
In the case of `CC[C@H](C)[C@H](NC(=O)[C@H](CCCCN)NC(=O)[C@@H](NC(=O)[C@H](CCC(N)=O)NC(=O)[C@H](CCCNC(=N)N)NC(=O)[C@@H](N)CSC1CC(=O)N(CCC(=O)O[C@@H](C(=O)O[C@H]2C[C@@]3(O)[C@@H](OC(=O)c4ccccc4)[C@@H]4[C@]5(OC(C)=O)CO[C@@H]5C[C@H](O)[C@@]4(C)C(=O)[C@H](OC(C)=O)C(=C2C)C3(C)C)[C@@H](NC(=O)c2ccccc2)c2ccccc2)C1=O)[C@@H](C)CC)C(=O)N[C@@H](Cc1c[nH]c2ccccc12)C(=O)N[C@@H](Cc1ccccc1)C(=O)N[C@@H](CCC(N)=O)C(=O)N[C@@H](CC(N)=O)C(=O)N[C@@H](CCCNC(=N)N)C(=O)N[C@@H](CCCNC(=N)N)C(=O)N[C@@H](CCSC)C(=O)N[C@@H](CCCCN)C(=O)N[C@@H](Cc1c[nH]c2ccccc12)C(=O)N[C@@H](CCCCN)C(=O)N[C@@H](CCCCN)C(N)=O` (single isomer, unassigned) [C], the half-life ([19]; cell-conditioned tissue culture medium (FCS in DMEM)) is reported as greater than 12 h.
